Results taken from US20020132812A1, “Oral hypoglycaemic agents” (priority 2000, published 2002).
Several values for one entry are separate records, joined by “and”; a condition that tells them apart may be missing. Equal values may be shown once.

Assays:
[1] = system: mouse pancreatic β-cells; experiment: Ca2+-evoked exocytosis (cell capacitance, whole-cell patch clamp) in single mouse pancreatic β-cells; type: cell-based; details: 100 μM compound in pipette solution, free Ca2+ 0.2 μM
Text: (§1) Pancreatic islets were isolated from fed NMRI mice (15-23 g). Briefly, the mice were stunned by a blow against the head and killed by cervical dislocation. The pancreas was quickly removed and pancreatic islets were isolated by collagenase (Sigma) digestion (Gromada et al. J. Physiol., Vol. 518 (3) pp. 745-759, 1999). For insulin release experiments, the islets were kept in RPMI-1640 tissue culture medium overnight before use. […]
(§2) Patch pipettes were drawn from borosilicate glass capillaries. […] The currents were recorded using an Axopatch 200B patch clamp amplifier (Axon Instruments, Foster City, Calif., USA), digitized and stored in a computer using the Digidata AD-converter and the software pClamp (version 6.0; Axon Instruments). Alternatively, KATP-currents were recorded using an EPC-9 patch clamp amplifier and the Pulse software (v. 8.01; HEKA Elektronik, Lamprecht/Pfalz, Germany). Exocytosis was monitored as increases in cell membrane capacitance (Neher & Marty Proc. Natl. Acad, Sci. USA, Vol. 79, pp. 6712-6716,1982) using the standard whole-cell configuration of the patch-clamp technique and an EPC-9 patch-clamp amplifier and the Pulse software (v. 8.01; HEKA Elektronik). […]

[2] = molecular target: T1, ATP-sensitive K+-channels (KATP-channels) (Mus musculus, UniProt Q61743); experiment: Whole-cell ATP-sensitive K+ current (KATP-channel activity) in single mouse β-cells; type: cell-based; details: 100 μM compound; six experiments; cells dialysed with 0.3 mM ATP and 0.3 mM ADP
T1 construct: Pancreatic islets were isolated from fed NMRI mice (15-23 g); endogenous in cells; host or cells: single beta-cells dispersed from pancreatic islets of NMRI mice
Text: as §1, §2

T1 sequence (Q61743 whole entry): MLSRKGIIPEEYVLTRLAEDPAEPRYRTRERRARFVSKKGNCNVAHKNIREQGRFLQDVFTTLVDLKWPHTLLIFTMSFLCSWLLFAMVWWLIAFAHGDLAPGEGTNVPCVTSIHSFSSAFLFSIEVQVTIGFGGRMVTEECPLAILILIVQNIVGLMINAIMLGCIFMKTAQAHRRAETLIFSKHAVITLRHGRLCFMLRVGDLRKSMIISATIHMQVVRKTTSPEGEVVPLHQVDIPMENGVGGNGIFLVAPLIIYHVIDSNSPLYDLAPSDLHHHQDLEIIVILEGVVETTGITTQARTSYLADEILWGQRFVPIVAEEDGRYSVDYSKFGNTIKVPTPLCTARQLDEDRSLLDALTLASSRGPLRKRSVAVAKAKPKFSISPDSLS
T1 sequence (B2RUS7 1-1588 partner): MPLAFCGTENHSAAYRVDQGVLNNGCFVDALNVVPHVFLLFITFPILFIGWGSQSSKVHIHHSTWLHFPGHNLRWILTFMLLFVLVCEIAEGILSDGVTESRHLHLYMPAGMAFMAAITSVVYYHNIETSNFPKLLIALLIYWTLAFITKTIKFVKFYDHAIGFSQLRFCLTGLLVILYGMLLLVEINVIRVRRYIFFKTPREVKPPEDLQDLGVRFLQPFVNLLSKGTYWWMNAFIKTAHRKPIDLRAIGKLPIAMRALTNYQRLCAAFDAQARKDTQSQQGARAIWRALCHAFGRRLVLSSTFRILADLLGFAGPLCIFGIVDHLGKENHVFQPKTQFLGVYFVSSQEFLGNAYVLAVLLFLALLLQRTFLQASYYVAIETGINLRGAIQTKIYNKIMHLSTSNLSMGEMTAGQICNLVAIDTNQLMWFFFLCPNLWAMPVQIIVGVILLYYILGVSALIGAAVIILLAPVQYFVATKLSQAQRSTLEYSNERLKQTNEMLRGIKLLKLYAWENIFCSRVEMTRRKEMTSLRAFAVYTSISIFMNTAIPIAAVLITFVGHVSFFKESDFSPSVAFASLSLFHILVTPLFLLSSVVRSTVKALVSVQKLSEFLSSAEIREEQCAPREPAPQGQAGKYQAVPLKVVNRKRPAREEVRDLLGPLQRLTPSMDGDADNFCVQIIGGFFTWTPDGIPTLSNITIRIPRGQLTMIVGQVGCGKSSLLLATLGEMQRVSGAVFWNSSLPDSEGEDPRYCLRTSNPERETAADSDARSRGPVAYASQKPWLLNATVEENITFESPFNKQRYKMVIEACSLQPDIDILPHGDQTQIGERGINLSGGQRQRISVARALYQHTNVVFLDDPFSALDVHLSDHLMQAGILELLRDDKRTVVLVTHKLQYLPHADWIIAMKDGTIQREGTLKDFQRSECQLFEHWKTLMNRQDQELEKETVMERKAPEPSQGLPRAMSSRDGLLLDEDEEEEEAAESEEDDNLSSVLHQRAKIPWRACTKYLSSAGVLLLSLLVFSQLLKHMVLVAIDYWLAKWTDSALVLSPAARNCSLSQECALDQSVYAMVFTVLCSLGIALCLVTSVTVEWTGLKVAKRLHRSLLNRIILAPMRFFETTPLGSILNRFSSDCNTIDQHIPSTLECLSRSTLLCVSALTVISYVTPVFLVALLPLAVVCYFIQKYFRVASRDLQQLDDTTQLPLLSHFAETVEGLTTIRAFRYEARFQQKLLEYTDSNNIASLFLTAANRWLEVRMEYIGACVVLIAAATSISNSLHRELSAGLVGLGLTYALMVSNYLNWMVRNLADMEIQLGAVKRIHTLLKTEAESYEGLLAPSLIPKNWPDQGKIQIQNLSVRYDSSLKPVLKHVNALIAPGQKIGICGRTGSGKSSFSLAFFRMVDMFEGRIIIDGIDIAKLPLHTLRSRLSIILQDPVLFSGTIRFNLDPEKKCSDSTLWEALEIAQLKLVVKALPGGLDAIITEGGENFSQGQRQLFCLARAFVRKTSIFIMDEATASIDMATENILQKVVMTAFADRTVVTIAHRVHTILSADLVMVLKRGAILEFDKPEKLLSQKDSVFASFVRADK

COc1cccc(C(CC2=NCCN2)c2ccccn2)c1 (single isomer, unassigned; (-)) [compound (Ex 2), (−)-2-(2-(4,5-Dihydro-1H-imidazol-2-yl)-1-(3-methoxyphenyl)ethyl)pyridine]
effect on Ca2+-evoked exocytosis (in words) [1]: strong stimulation of exocytosis
rate of exocytosis (ΔCm/Δt) measured over the first 60 s after establishment of the whole-cell configuration ([1]; control 5.0±0.3 fF/s, P<0.025): 9.4±1.7 fF/s
whole-cell KATP current / channel activity, % of prestimulatory level [2]: 90±4% and 90+4%
